Measured values reported in paper PMC8071358, “Targeting of the Essential acpP, ftsZ, and rne Genes in Carbapenem-Resistant Acinetobacter baumannii by Antisense PNA Precision Antibacterials” (Biomedicines, 2021).
Values after ≈ are worked out from the molar mass of the structure shown. Like-named read-outs stand apart in the source and are kept apart here. {(KFF)3K-eg1} = H-(KFF)3K peptide (K lysine, F phenylalanine) with eg1 linker (8-amino-3,6-dioxaoctanoyl), on the PNA N terminus (5' end); {(kff)3k-eg1} = D-form (kff)3k peptide with eg1 linker (8-amino-3,6-dioxaoctanoyl), on the PNA N terminus; {(R-Ahx-R)4-Ahx} = H-(R-Ahx-R)4-Ahx peptide (R arginine, Ahx 6-aminohexanoyl), on the PNA N terminus; {NH2} = C-terminal amide

Tests used:
Type in all cases: cell-based, Acinetobacter baumannii
A. baumannii ATCC 19606 = test: BPP-PNA MIC, broth microdilution; conditions: 37 °C, 18 h
Method: (§1) MIC values were determined by broth microdilution according to standard protocols with a few modifications. An overnight bacterial cell culture was diluted to approximately 5 × 10^5 CFU/mL in non-cation-adjusted Muller Hinton Broth (MHB). Then, 180 µL bacterial solutions were dispensed into a low-bind 96-well plate (Thermo-Scientific, Roskilde, Denmark) along with 20 µL of BPP-PNA compound (BPP-PNA was serially diluted 2-fold from 16 to 0.5 µM in a 96-well plate). The plate was incubated in a Tecan Genios plate reader (GMI, Minnesota, Ramsey, USA) at 37 °C for 18 h with linear shaking, OD was measured every 20 min at 595 nm. […] The minimum bactericidal concentration (MBC) values were determined by plating 10 µL samples from the wells with no visible turbidity onto Mueller–Hinton agar plates. The MBC is determined the lowest concentration of BPP-PNA that reduces the viability of the initial bacterial inoculum by ≥99.9% (3-log reduction in CFU/mL). A minimum of two independent experiments (biological replicates) of the assay were conducted, and two technical replicates were used in each experiment for each bacterium, compound, and concentration.

CRAB strain AC2 [1] = test: BPP-PNA MIC, broth microdilution
Method: as §1

CRAB strain AC44 [2] = test: BPP-PNA MIC, broth microdilution
Method: as §1

A. baumannii SSI1104 = test: BPP-PNA MIC, broth microdilution; conditions: Sigma MHB medium without cation; 37 °C, 18 h
Method: as §1, with “An overnight bacterial cell culture was diluted to approximately 5 × 10^5 CFU/mL in non-cation-adjusted Muller Hinton Broth (MHB).” left out

CRAB strain AC46 [3] = test: BPP-PNA MIC, broth microdilution
Method: as §1, with “An overnight bacterial cell culture was diluted to approximately 5 × 10^5 CFU/mL in non-cation-adjusted Muller Hinton Broth (MHB).” left out

[4] = system: A. baumannii ATCC 19606 type strain; test: Antibiotic MIC (CLSI microdilution or gradient strips); conditions: Acinetobacter baumannii, ATCC19606
Method: (§2) All minimum inhibitory concentration (MIC) determinations for antibiotics were performed by the standard microdilution method in 96-well microplate (Thermo-Scientific, Roskilde, Denmark) or by gradient test strips (Liofilchem, Italy) according to the Clinical and Laboratory Standards Institute guidelines. Escherichia coli ATCC 25922 was used as control.

CRAB strain AC1 = test: as above; conditions: Acinetobacter baumannii, AC1, wound isolate
Method: as §2

CRAB strain AC2 [5] = test: as above; conditions: Acinetobacter baumannii
Method: as §2

CRAB strain AC3 = test: as above; conditions: Acinetobacter baumannii, AC3, sputum isolate
Method: as §2

CRAB strain AC46 [6] = test: as above; conditions: Acinetobacter baumannii
Method: as §2

CRAB strain AC4 = test: as above; conditions: Acinetobacter baumannii
Method: as §2

CRAB strain AC8 = test: as above; conditions: Acinetobacter baumannii
Method: as §2

CRAB strain AC9 = test: as above; conditions: Acinetobacter baumannii
Method: as §2

CRAB strain SSI1104 = test: as above; conditions: Acinetobacter baumannii, SSI1104
Method: as §2

CRAB strain AC6 = test: as above; conditions: Acinetobacter baumannii
Method: as §2, with “guidelines.” for “guidelines. Escherichia coli ATCC 25922 was used as control.”

CRAB strain AC7 = test: as above; conditions: Acinetobacter baumannii
Method: as §2, with “guidelines.” for “guidelines. Escherichia coli ATCC 25922 was used as control.”

CRAB strain AC44 [7] = test: as above; conditions: Acinetobacter baumannii, AC44, urine isolate
Method: as §2

CRAB strain AC5 = test: as above; conditions: Acinetobacter baumannii, AC5, urine isolate
Method: as §2

[8] = Sigma MHB medium without cation, ~5 × 10^5 CFU/mL, OD595 < 0.1
[9] = Sigma MHB medium without cation, 37 °C, 18 h
[10] = AC2, wound isolate, CLSI, read-out: MIC, AC2
[11] = AC46, sputum isolate, CLSI, read-out: MIC, AC46
[12] = AC4, trachea isolate, CLSI, read-out: MIC, AC4
[13] = AC8, sputum isolate, CLSI, read-out: MIC, AC8
[14] = AC9, CSF isolate, CLSI, read-out: MIC, AC9
[15] = AC6, blood isolate, CLSI, read-out: MIC, AC6
[16] = AC7, blood isolate, CLSI, read-out: MIC, AC7
[17] = Table 4 (anti-rne), brand of medium not given, non-cation-adjusted MHB by method

## H-(KFF)3K-eg1-ATACCGCTTAC-NH2 (all peptide nucleic acid (PNA), 5' {(KFF)3K-eg1}, 3' {NH2}) [PNA 5653, anti-acpP mismatch control of 5652]
A. baumannii ATCC 19606; [8]
  MIC, ATCC 19606: 4 µM
CRAB strain AC2 [1]; [9]
  MIC, AC2: 4 µM
CRAB strain AC44 [2]; [9]
  MIC, AC44: 4 µM
A. baumannii SSI1104
  MIC, SSI 1104: 4 µM
CRAB strain AC46 [3]; [9]
  MIC, AC46: 4 µM

## CNC(C)C1CCC(N)C(OC2C(N)CC(N)C(OC3OCC(C)(O)C(NC)C3O)C2O)O1 (stereo not drawn) [Gentamicin]
[4]
  MIC: 4 µg/mL (≈ 8.38 µM)
CRAB strain AC1
  MIC: 8 µg/mL (≈ 16.8 µM)
CRAB strain AC2 [5]; AC2, read-out: MIC, AC2
  MIC: 16 µg/mL (≈ 33.5 µM)
CRAB strain AC3
  MIC: 8 µg/mL (≈ 16.8 µM)
CRAB strain AC46 [6]; AC46, read-out: MIC, AC46
  MIC: 16 µg/mL (≈ 33.5 µM)
CRAB strain AC4; AC4, read-out: MIC, AC4
  MIC: 16 µg/mL (≈ 33.5 µM)
CRAB strain AC8; AC8, read-out: MIC, AC8
  MIC: 16 µg/mL (≈ 33.5 µM)
CRAB strain AC9; AC9, read-out: MIC, AC9
  MIC: 16 µg/mL (≈ 33.5 µM)
CRAB strain SSI1104
  MIC: 32 µg/mL (≈ 67 µM)
CRAB strain AC6; AC6, read-out: MIC, AC6
  MIC: 16 µg/mL (≈ 33.5 µM)
CRAB strain AC7; AC7, read-out: MIC, AC7
  MIC: 16 µg/mL (≈ 33.5 µM)

## CC(C)(O/N=C(\C(=O)N[C@@H]1C(=O)N2C(C(=O)[O-])=C(C[n+]3ccccc3)CS[C@H]12)c1csc(N)n1)C(=O)O [Ceftazidime]
[4]
  MIC: 8 µg/mL (≈ 14.6 µM)
CRAB strain AC1
  MIC: 64 µg/mL (≈ 117 µM)
CRAB strain AC2 [5]; [10]
  MIC: 64 µg/mL (≈ 117 µM)
CRAB strain AC3
  MIC: 64 µg/mL (≈ 117 µM)
CRAB strain AC44 [7]
  MIC: 256 µg/mL (≈ 468 µM)
CRAB strain AC46 [6]; [11]
  MIC: 128 µg/mL (≈ 234 µM)
CRAB strain AC4; [12]
  MIC: 64 µg/mL (≈ 117 µM)
CRAB strain AC5
  MIC: 32 µg/mL (≈ 58.5 µM)
CRAB strain AC8; [13]
  MIC: 64 µg/mL (≈ 117 µM)
CRAB strain AC9; [14]
  MIC: 32 µg/mL (≈ 58.5 µM)
CRAB strain SSI1104
  MIC: > 8 µg/mL
CRAB strain AC6; [15]
  MIC: 32 µg/mL (≈ 58.5 µM)
CRAB strain AC7; [16]
  MIC: 64 µg/mL (≈ 117 µM)

## H-(KFF)3K-eg1-ACGATTCTTGG-NH2 (all peptide nucleic acid (PNA), 5' {(KFF)3K-eg1}, 3' {NH2}) [PNA 5638, anti-rne mismatch control of 5637]
A. baumannii ATCC 19606; [17]
  MIC, ATCC 19606: 2 µM
CRAB strain AC44 [2]; [17]
  MIC, AC44: 2 µM
CRAB strain AC46 [3]; [17]
  MIC, AC46: 1 µM

## H-(KFF)3K-eg1-GTTTCATGGGT-NH2 (all peptide nucleic acid (PNA), 5' {(KFF)3K-eg1}, 3' {NH2}) [PNA 5655, anti-rne peptide-PNA conjugate, match, −4 to +7]
A. baumannii ATCC 19606; [17]
  MIC, ATCC 19606: 4 µM
CRAB strain AC2 [1]; [17]
  MIC, AC2: 8 µM
CRAB strain AC44 [2]; [17]
  MIC, AC44: 8 µM

## C[C@@H](O)[C@H]1C(=O)N2C(C(=O)O)=C(SCCN=CN)C[C@H]12 [Imipenem]
[4]
  MIC: 1 µg/mL (≈ 3.34 µM)
CRAB strain AC1
  MIC: 8 µg/mL (≈ 26.7 µM)
CRAB strain AC2 [5]; [10]
  MIC: 16 µg/mL (≈ 53.4 µM)
CRAB strain AC3
  MIC: 32 µg/mL (≈ 107 µM)
CRAB strain AC44 [7]
  MIC: 16 µg/mL (≈ 53.4 µM)
CRAB strain AC46 [6]; [11]
  MIC: 16 µg/mL (≈ 53.4 µM)
CRAB strain AC4; [12]
  MIC: 8 µg/mL (≈ 26.7 µM)
CRAB strain AC5
  MIC: 16 µg/mL (≈ 53.4 µM)
CRAB strain AC8; [13]
  MIC: 16 µg/mL (≈ 53.4 µM)
CRAB strain AC9; [14]
  MIC: 16 µg/mL (≈ 53.4 µM)
CRAB strain AC6; [15]
  MIC: 16 µg/mL (≈ 53.4 µM)
CRAB strain AC7; [16]
  MIC: 16 µg/mL (≈ 53.4 µM)

## H-(kff)3k -eg1-TGACTTGTCAC-NH2 (all peptide nucleic acid (PNA), 5' {(kff)3k-eg1}, 3' {NH2}) [PNA 5824, anti-acpP PNA with D-form peptide, mismatch]
A. baumannii ATCC 19606; [8]
  MIC, ATCC 19606: 8 µM
CRAB strain AC2 [1]; [9]
  MIC, AC2: 8 µM
CRAB strain AC44 [2]; [9]
  MIC, AC44: 4 µM
A. baumannii SSI1104
  MIC, SSI 1104: 8 µM
CRAB strain AC46 [3]; [9]
  MIC, AC46: 4 µM

## H-(R-Ahx-R)4-Ahx-GAGTCCAGGAC-NH2 (all peptide nucleic acid (PNA), 5' {(R-Ahx-R)4-Ahx}, 3' {NH2}) [PNA 5616, anti-ftsZ (R-Ahx-R)4-Ahx-PNA, mismatch]
A. baumannii ATCC 19606; MHB without cation (Oxoid)
  MIC, ATCC 19606: >16 µM
CRAB strain AC44 [2]; MHB without cation (Oxoid), 37 °C, 18 h
  MIC, AC44: >16 µM
